Experimental data taken from ChEMBL document CHEMBL1201862, “PubChem BioAssay data set” (2004).
The source made the active and inactive calls.

How the values were obtained:
[1] = biological target: T1, Insulin-degrading enzyme (Homo sapiens, UniProt P14735); experiment: activators of endogenous IDE in HEK cells, dose response, cell-based, fluorescence polarization (AID 588439); format: functional
T1 sequence (P14735 whole entry): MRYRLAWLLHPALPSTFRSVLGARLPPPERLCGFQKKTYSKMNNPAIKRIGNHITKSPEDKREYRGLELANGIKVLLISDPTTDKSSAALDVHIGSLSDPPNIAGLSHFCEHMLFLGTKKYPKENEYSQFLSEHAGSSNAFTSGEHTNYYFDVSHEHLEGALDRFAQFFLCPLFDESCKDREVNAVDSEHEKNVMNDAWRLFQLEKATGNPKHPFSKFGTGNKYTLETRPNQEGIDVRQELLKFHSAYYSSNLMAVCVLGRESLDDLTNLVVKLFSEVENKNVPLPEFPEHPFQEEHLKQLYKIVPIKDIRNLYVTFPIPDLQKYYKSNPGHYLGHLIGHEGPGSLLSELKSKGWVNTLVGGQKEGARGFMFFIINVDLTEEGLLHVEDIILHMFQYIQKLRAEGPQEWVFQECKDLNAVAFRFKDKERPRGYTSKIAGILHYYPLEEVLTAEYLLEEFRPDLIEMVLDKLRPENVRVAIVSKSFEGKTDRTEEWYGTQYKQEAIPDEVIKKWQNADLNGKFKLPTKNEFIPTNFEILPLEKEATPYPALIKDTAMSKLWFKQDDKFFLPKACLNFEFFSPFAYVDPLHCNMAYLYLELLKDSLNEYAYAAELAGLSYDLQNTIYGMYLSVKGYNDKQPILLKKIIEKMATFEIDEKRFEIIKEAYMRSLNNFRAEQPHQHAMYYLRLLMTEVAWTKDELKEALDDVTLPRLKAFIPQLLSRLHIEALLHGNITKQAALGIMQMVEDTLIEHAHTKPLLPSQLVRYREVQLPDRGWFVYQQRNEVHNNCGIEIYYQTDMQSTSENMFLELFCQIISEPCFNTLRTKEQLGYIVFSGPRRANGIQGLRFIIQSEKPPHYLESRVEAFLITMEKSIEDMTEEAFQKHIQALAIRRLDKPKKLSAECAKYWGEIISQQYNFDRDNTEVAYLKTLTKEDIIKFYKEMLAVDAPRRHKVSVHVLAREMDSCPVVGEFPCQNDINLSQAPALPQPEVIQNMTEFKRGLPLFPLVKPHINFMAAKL

[2] = tested on: HEK293; experiment: optical interference in Abeta FP readout, dose response, artefact control for IDE activator project, biochemical, fluorescence polarization (AID 588442); format: functional, cell-based; conditions: Homo sapiens
[3] = biological target: T1, Insulin-degrading enzyme; experiment: activators of recombinant IDE enzyme, dose response, counter-screen for IDE activator project, biochemical, fluorescence polarization (AID 588681)
[4] = tested on: HEK293; experiment: HEK cell cytotoxicity by LDH release, dose response, cytotoxicity control for IDE activator project, fluorescence, HEK cells (AID 588440); format: functional, cell-based; conditions: Homo sapiens;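 also: cytotoxicity by LDH release measuring loss of membrane integrity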
[5] = biological target: T2, Hexokinase-1 (Homo sapiens, UniProt P19367); experiment: SAR analysis of small molecule inhibitors of hexokinase domain containing I (HKDC1) in the hexokinase 1 selectivity assay. [Related pubchem assays (depositor defined):AID493160, AID493190]; format: functional
T2 sequence (P19367 whole entry): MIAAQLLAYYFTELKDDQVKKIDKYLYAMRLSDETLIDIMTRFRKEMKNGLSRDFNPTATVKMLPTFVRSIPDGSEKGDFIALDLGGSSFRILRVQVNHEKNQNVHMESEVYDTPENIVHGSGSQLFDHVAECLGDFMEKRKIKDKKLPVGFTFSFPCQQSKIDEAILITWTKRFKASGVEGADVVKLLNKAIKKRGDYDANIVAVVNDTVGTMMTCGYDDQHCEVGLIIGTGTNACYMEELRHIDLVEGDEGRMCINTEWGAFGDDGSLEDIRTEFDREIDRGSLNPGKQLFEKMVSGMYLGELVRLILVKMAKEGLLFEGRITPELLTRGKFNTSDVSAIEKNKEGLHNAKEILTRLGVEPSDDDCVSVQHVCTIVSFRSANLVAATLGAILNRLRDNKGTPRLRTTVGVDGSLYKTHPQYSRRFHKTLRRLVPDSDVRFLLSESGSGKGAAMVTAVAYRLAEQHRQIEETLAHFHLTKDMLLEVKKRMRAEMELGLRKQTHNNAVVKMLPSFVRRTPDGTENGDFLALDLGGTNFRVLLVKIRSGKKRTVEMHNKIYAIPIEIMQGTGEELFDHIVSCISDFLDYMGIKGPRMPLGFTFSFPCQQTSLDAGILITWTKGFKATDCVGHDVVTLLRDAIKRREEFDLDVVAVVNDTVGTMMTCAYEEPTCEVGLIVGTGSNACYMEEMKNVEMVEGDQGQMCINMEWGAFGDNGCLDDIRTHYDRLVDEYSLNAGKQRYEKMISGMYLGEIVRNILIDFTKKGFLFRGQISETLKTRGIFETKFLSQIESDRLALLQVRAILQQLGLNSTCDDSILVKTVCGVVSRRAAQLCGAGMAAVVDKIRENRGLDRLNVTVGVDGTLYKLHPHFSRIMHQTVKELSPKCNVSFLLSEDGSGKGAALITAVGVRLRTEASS

[6] = biological target: T3, Hexokinase HKDC1 (Homo sapiens, UniProt Q2TB90); experiment: SAR analysis of small molecule inhibitors of hexokinase domain containing I (HKDC1). [Related pubchem assays (depositor defined):AID493160, AID493190]; format: functional
T3 sequence (Q2TB90 whole entry): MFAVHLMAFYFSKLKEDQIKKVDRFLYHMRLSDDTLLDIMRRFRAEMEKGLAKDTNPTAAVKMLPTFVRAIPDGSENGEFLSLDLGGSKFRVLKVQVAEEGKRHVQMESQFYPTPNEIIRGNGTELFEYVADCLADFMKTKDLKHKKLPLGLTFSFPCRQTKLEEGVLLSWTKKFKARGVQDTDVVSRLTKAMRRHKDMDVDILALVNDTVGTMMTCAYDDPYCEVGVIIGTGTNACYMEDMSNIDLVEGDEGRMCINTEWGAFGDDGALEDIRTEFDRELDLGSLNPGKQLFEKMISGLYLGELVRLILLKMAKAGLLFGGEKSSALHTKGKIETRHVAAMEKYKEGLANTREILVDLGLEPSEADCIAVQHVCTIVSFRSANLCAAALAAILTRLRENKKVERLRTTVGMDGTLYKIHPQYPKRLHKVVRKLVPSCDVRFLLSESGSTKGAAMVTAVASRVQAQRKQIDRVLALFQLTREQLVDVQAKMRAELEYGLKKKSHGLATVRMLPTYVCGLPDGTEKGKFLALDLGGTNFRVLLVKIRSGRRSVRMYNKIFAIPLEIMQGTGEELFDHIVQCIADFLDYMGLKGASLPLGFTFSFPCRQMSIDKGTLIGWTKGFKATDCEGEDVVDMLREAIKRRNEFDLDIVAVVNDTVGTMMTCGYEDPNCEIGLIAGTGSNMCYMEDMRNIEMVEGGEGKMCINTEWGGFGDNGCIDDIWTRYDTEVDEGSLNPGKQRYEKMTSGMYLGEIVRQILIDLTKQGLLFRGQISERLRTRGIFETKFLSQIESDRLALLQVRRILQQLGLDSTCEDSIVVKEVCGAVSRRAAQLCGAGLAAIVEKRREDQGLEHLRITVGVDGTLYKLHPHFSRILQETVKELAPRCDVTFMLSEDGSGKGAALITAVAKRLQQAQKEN

[7] = biological target: Melanin-concentrating hormone receptor 1 (Homo sapiens, UniProt Q99705); experiment: Late-stage fluorescence-based counterscreen for antagonists of the G-protein coupled receptor 7 (GPR7): cell-based dose response assay to identify antagonists of the melanin-concentrating hormone receptor 1 (MCHR1) Set 5.; format: functional
[8] = cells; format: functional, cell-based
[9] = tested on: INS1; experiment: beta cell apoptosis inhibitors, cytokine rescue, dose response, luminescence, retest (AID 449756); format: functional, cell-based; conditions: Rattus norvegicus;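 also: cell death triggered by IL-1 beta plus TNF-alpha plus IFN-gamma mixture; protective hits raise ATP signal compared with cytokine alone wells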
[10] = cells; format: functional, cell-based; remark: listed apart in the source
[11] = biological target: DNA (cytosine-5)-methyltransferase 1 (Homo sapiens, UniProt P26358); experiment: DNMT1 methyltransferase inhibitors, confirmation, biochemical, fluorescent molecular beacon (AID 602386); format: functional
[12] = Counterscreen for activators of the function of SWI/SNF related, matrix associated, actin dependent regulator of chromatin, subfamily a, member 2 (SMARCA2, BRM): Luminescence-based cell-based high throughput dose response assay to identify non-selective compounds using the VP16 reporter assay.; format: functional
[13] = biological target: SWI/SNF-related matrix-associated actin-dependent regulator of chromatin subfamily A member 2 (Homo sapiens, UniProt P51531); experiment: Luminescence-based cell-based high throughput dose response assay to identify activators of the function of SWI/SNF related, matrix associated, actin dependent regulator of chromatin, subfamily a, member 2 (SMARCA2, BRM).; format: functional
[14] = biological target: Potassium voltage-gated channel subfamily KQT member 2 (Rattus norvegicus, UniProt O88943); experiment: KCNQ2 potassium channel inhibitors, dose response, cell-based, automated electrophysiology, set II, rat KCNQ2 (AID 588637); format: functional
[15] = biological target: Tyrosine-protein phosphatase non-receptor type 5 (Homo sapiens, UniProt P54829); experiment: STEP phosphatase inhibitors, confirmation, biochemical, fluorescence intensity, uHTS hits (AID 602372); format: functional; conditions: read-out: IC50_Mean
[16] = biological target: Tyrosine-protein phosphatase non-receptor type 11 (Homo sapiens, UniProt Q06124); experiment: SHP2 phosphatase inhibition, dose response, selectivity assay for STEP inhibitor project, biochemical (AID 602367); format: functional; conditions: read-out: IC50_Mean
[17] = biological target: Dual specificity protein phosphatase 3 (Homo sapiens, UniProt P51452); experiment: VHR phosphatase inhibition, dose response, selectivity assay for STEP inhibitor project, biochemical (AID 602374); format: functional; conditions: read-out: IC50_Mean
[18] = nonselective inhibitors of cellular cAMP signaling, dose response, counter-screen for MC4R biased antagonist project, cell-based, TR-FRET cAMP detection (AID 602305); format: functional;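 also: U2OS cells stimulated with forskolin near its EC80 as the cAMP inducer; potency is for inhibition of forskolin-stimulated cAMP signaling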
[19] = biological target: T4, Heat shock factor protein 1 (Mus musculus, UniProt P38532); experiment: HSF1 potentiators in luciferase reporter cells, confirmation, cell-based, NIH3T3, luminescence, dose retest (AID 435004); format: functional;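 also: stress induced by proteasome inhibitor MG132 added 30 min after compound; luciferase reporter driven by HSF1 response element in NIH3T3 cells; actives raise luminescence as potentiators of the MG132 stress response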
T4 sequence (P38532 whole entry): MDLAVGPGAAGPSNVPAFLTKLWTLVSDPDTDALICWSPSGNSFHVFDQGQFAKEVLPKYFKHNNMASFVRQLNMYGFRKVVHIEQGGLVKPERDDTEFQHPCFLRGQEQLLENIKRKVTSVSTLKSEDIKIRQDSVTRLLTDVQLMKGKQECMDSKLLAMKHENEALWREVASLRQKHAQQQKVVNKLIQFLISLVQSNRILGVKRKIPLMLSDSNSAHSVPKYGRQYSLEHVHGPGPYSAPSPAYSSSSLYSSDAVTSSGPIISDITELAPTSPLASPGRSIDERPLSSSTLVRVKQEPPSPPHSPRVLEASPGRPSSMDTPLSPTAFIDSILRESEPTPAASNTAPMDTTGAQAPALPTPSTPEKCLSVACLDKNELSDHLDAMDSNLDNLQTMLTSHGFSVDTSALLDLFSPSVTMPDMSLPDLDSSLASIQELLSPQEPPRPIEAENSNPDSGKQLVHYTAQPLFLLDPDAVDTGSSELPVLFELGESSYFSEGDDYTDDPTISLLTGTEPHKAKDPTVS

[20] = biological target: Melanocortin receptor 4 (Homo sapiens, UniProt P32245); experiment: MC4R antagonist potency on cAMP, dose response, cell-based, TR-FRET, biased antagonists (AID 602298); format: functional;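 also: antagonist potency against agonist-stimulated cAMP production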
[21] = biological target: Beta-galactosidase (Escherichia coli, UniProt Q8VNN2); experiment: Dose response counterscreen for EBI2 assay utilizing the enzyme, b-galactosidase.; format: functional
[22] = biological target: Mitogen-activated protein kinase 12 (Homo sapiens, UniProt P53778); format: functional;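 also: measured as one member of a kinome-wide kinase profiling panel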
[23] = biological target: Cell division cycle 7-related protein kinase (Homo sapiens, UniProt O00311); format: functional;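 also: value obtained from a kinome-wide kinase panel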
[24] = biological target: Testis-specific serine/threonine-protein kinase 2 (Homo sapiens, UniProt Q96PF2); format: functional;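 also: part of the Navigating the Kinome panel, target entry STK22B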
Chain of Testis-specific serine/threonine-protein kinase 2 (Q96PF2 whole entry): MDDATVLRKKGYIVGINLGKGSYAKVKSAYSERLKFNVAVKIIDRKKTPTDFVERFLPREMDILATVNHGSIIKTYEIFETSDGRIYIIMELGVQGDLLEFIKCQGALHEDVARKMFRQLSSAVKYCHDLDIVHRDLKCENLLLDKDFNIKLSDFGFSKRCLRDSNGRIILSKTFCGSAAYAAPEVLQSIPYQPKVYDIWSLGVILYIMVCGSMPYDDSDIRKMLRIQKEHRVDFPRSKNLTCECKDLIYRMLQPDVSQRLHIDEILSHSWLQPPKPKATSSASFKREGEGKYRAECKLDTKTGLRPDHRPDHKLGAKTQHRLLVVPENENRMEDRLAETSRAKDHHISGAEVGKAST

Chain of Melanocortin receptor 4 (P32245 whole entry): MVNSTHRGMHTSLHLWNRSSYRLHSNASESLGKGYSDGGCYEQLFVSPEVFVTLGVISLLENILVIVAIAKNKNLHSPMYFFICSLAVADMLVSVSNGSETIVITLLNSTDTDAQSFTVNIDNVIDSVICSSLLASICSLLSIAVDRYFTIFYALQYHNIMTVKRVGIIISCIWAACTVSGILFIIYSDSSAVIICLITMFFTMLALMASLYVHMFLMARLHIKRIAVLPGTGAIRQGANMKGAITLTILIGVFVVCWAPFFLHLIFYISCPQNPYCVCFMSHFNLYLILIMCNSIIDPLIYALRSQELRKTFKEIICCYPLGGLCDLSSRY
Chain of Mitogen-activated protein kinase 12 (P53778 whole entry): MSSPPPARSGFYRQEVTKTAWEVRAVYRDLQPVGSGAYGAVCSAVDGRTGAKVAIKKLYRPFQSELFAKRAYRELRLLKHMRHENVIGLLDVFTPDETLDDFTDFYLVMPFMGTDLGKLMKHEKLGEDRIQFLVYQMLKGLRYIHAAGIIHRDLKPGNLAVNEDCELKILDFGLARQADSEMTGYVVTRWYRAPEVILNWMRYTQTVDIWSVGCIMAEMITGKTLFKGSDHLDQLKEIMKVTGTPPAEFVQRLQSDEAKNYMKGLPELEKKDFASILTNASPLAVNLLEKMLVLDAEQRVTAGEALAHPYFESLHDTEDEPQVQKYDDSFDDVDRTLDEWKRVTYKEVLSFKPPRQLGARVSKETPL
Chain of Cell division cycle 7-related protein kinase (O00311 whole entry): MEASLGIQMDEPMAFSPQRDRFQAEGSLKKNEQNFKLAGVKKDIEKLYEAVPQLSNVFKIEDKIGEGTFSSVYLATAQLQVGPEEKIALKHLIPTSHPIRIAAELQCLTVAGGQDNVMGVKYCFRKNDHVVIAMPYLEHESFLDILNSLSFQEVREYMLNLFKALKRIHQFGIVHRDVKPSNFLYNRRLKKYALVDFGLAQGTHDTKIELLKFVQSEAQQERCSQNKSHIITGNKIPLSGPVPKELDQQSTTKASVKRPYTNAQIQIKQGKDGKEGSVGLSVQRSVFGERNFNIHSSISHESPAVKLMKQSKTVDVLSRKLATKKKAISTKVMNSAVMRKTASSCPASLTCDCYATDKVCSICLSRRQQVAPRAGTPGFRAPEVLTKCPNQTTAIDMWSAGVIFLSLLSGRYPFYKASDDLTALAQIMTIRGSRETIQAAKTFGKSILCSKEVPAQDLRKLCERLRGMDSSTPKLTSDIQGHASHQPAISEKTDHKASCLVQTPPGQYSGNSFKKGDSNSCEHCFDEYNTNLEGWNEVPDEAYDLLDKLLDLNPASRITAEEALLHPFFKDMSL
Chain of Beta-galactosidase (Q8VNN2 whole entry): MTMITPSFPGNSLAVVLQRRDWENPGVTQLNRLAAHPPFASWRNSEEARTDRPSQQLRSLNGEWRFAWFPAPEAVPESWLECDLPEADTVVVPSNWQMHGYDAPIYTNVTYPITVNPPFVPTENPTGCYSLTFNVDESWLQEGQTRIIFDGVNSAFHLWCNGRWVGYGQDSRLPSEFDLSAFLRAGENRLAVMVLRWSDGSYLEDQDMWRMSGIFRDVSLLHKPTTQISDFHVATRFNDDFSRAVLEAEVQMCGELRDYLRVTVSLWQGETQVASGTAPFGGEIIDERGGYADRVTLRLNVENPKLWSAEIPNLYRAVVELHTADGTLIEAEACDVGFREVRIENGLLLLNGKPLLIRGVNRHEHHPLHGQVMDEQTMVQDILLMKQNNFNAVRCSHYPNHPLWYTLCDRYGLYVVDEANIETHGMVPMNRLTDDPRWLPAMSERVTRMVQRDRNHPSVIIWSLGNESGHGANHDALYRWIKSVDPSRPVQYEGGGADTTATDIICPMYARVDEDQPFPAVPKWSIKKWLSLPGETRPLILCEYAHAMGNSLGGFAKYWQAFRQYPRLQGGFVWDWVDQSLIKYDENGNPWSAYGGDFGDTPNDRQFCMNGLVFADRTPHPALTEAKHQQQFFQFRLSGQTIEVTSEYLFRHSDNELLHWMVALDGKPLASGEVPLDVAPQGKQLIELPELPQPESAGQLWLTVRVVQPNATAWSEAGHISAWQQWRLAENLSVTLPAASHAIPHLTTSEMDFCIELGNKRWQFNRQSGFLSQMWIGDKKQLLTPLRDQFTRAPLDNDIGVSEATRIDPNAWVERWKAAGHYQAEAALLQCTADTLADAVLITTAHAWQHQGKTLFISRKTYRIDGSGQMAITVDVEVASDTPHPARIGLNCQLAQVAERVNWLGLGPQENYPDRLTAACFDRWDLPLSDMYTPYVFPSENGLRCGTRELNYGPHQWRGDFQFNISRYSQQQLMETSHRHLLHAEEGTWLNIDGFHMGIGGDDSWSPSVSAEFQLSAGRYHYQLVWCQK
Chain of Potassium voltage-gated channel subfamily KQT member 2 (O88943 whole entry): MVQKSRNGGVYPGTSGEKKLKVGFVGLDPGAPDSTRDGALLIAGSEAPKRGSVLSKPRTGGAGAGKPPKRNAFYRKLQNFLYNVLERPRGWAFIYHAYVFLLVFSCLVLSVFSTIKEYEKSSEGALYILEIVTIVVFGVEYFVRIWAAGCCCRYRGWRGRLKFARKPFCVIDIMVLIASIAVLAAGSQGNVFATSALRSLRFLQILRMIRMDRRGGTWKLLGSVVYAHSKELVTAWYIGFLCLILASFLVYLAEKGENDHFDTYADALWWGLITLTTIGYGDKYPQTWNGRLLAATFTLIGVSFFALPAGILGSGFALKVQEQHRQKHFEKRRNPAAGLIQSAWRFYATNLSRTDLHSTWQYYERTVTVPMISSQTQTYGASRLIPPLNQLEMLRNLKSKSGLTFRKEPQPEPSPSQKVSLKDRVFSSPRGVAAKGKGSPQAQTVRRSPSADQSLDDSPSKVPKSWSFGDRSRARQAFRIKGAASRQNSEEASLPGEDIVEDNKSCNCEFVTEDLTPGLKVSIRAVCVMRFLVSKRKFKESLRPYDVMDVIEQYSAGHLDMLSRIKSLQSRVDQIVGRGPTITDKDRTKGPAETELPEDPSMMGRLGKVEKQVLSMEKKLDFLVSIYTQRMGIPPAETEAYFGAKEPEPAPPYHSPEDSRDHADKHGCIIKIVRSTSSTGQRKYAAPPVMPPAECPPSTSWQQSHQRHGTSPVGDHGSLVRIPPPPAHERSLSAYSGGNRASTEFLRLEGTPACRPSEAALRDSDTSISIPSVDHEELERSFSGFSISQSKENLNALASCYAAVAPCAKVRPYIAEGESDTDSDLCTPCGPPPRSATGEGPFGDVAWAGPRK
Chain of Melanin-concentrating hormone receptor 1 (Q99705 whole entry): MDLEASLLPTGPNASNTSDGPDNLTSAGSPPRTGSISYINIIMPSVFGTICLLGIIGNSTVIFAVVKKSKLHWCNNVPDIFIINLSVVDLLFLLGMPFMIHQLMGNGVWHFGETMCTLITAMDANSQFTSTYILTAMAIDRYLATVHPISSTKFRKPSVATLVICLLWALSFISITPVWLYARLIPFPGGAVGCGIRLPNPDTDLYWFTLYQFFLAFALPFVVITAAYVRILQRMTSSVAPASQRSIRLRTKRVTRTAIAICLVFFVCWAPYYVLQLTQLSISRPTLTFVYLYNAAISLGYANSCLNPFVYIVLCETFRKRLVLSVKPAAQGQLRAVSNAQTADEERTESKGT
Chain of Tyrosine-protein phosphatase non-receptor type 11 (Q06124 whole entry): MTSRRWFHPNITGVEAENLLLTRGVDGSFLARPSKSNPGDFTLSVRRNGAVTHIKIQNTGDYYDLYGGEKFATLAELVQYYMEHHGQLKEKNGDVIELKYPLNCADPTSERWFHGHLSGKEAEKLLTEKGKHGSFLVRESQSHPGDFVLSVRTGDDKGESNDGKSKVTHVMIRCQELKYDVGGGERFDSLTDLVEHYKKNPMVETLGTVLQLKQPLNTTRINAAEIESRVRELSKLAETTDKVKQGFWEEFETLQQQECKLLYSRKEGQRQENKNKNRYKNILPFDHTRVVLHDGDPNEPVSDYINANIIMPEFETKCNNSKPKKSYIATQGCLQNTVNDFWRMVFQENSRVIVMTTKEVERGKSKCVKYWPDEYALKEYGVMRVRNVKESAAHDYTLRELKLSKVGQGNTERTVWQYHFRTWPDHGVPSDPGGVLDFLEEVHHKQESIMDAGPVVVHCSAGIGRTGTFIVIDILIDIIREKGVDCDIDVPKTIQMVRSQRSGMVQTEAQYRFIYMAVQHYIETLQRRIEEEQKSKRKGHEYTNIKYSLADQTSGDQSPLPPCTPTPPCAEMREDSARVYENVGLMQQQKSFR
Chain of Dual specificity protein phosphatase 3 (P51452 whole entry): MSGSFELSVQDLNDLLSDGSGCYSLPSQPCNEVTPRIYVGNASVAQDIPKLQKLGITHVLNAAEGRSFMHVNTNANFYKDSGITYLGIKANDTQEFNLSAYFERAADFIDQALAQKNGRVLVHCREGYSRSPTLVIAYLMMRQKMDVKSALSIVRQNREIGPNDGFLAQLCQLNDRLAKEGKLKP

## COc1ccc(/C=C2\Oc3cc(OCC(=O)N4CCC(C(=O)O)CC4)ccc3C2=O)c(OC)c1
[1]
  EC50: > 54.7 µM (inactive)
[2]
  EC50: > 56 µM (inactive)
[3]
  EC50: > 54.7 µM (inactive)
[4]
  IC50: > 89.3 µM (inactive)

## O=C(Nc1nnc(SCc2ccccc2)s1)c1ccc2ncsc2c1
[5]
  IC50: > 80 µM (inactive)
[6]
  IC50: > 80 µM (inactive)

## Cc1nc(Cc2nnc(SC(C)C(=O)N3c4ccccc4NC(=O)C3(C)C)o2)cs1 (stereo not drawn)
[1]
  EC50: > 54.7 µM (inactive)
[2]
  EC50: > 55.9 µM (inactive)
[3]
  EC50: > 54.7 µM (inactive)
[4]
  IC50: > 89.1 µM (inactive)

## CCc1ccccc1Cn1ncc(Cl)c(Oc2ccc(OC)cc2)c1=O
[7]
  IC50: 4.62 µM (active)

## CCN(CC)CCOc1ccc2c(c1)C(=NO)c1cc(OCCN(CC)CC)ccc1-2
[8]
  EC50: > 350 µM (not active)
[9]
  AC50: 5.22 µM (active)
[10]
  EC50: > 350 µM (not active)
[11]
  IC50: > 99 µM (inactive)
[12]
  EC50: > 91.1 µM (inactive)
[13]
  EC50: 11.4 µM (inactive)

## Cc1ccc2nc(-c3ccccc3)cc(C(=O)N3CC(C)OC(C)C3)c2c1 (stereo not drawn)
[14]
  IC50: 0.0681 µM (active)

## CCOC(=O)N1CCC(N(CCN(C)C)C(=S)Nc2ccc(Oc3ccccc3)cc2)CC1
[15]
  IC50: 6.93 µM (active)
[16]
  IC50: 3.17 µM (active)
[17]
  IC50: 0.5 µM (active)

## CCOC(=O)c1ccc(/N=c2\sc(C(=O)OC)cc(=O)n2-c2ccc(C(=O)OCC)cc2)cc1
[18]
  IC50: > 64.6 µM (inactive)
[19]
  EC50: 3.42 µM (active)
[20]
  IC50: > 64.6 µM (inactive)
[21]
  IC50: > 80 µM (inactive)

## C[S+]([O-])c1ccc(-c2nc(-c3ccncc3)c(-c3ccc(F)cc3)[nH]2)cc1 (stereo not drawn) [SB-203580]
[22]
  Ki: > 6.31 µM (inactive)
[23]
  Ki: > 1.26 µM (inactive)
[24]
  Ki: > 1.58 µM (inactive)
